Experimental data taken from US5922715A, “5-aminoalkoxy-1, 4-dihydroquinoxaline-2, 3-diones” (American Home Products Corporation, priority 1998, dated 1999).

What was measured:
[1] = biological target: T1, dopamine D2 (dopamine autoreceptor) (Rattus norvegicus, UniProt P61169); experiment: Affinity for the dopamine autoreceptor: 3H-quinpirole (Quin.) binding, homogenized rat striatal brain tissue
T1 construct: homogenized rat striatal brain tissue; from tissue; host or cells: rat striatal brain tissue, homogenized
T1 sequence (P61169 whole entry): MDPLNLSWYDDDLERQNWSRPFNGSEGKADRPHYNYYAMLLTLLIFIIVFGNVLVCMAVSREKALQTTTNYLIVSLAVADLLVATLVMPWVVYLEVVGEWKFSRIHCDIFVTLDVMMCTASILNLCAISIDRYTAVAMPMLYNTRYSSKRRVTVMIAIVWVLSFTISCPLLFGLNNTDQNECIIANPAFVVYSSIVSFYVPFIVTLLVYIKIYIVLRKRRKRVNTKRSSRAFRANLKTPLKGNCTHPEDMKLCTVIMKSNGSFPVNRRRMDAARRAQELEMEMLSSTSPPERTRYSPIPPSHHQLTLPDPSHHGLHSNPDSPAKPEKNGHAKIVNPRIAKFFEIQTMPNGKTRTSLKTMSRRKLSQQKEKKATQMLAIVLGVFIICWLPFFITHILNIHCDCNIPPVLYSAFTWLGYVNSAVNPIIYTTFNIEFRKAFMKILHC
Method: Affinity for the dopamine autoreceptor was established by a modification of the standard experimental test procedure of Seamen and Schaus, European Journal of Pharmacology 203, 105-109, 1991, wherein homogenized rat striatal brain tissue is incubated with ^3 H-quinpirole (Quin.) and various concentrations of test compound, filtered and washed and counted in a Betaplate scintillation counter.

dopamine D-2 receptor = biological target: T2, dopamine D-2 receptor (Rattus norvegicus, UniProt P61169); experiment: High affinity for the dopamine D-2 receptor: 3H-spiroperidol (Spiper.) binding, homogenized limbic brain tissue; settings: read-out: IC50 (nM) D2 Spiper
T2 construct: homogenized limbic brain tissue; from tissue; host or cells: limbic brain tissue, homogenized
T2 sequence (P61169 whole entry): as above
Method: High affinity for the dopamine D-2 receptor was established by the standard experimental test procedure of Fields, et al., Brain Res., 136, 578 (1977) and Yamamura et al., eds., Neurotranrutter Receptor Binding, Raven Press, N.Y. (1978) wherein homogenized limbic brain tissue is incubated with ^3 H-spiroperidol (Spiper.) and various concentrations of test compound, filtered and washed and shaken with Hydrofluor scintillation cocktail (National Diagnostics) and counted in a Packard 460 CD scintillation counter.

| Structure (SMILES) | IC50 [1] [nM] | IC50 (dopamine D-2 receptor) [nM] |
| --- | --- | --- |
| O=c1[nH]c2cccc(OCCNCc3ccccc3)c2[nH]c1=O [Example 1, 5-(2-Benzylamino-ethoxy)-1,4-dihydro-quinoxaline-2,3-dione] | 20.8 | 2190 |
| O=c1[nH]c2cccc(OCCNCc3ccc(Cl)cc3)c2[nH]c1=O [Example 2, 5-[2-(4-Chloro-benzylamino)-ethoxy]-1,4-dihydro-quinoxaline-2,3-dione] | 64.6 |  |
